“And” between values parts separate entries of the source, which are not always exact repeats. Equal values may be shown once.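 All cell lines were grown in 96-well plates and treated with compound for 48 hours. The concentration for 50% growth inhibition is given as GI50. TGI denotes the concentration required for complete inhibition of growth.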
What was measured:
Assay in all cases: NCI anticancer screen, dose series, 48 h
[1] = test system: K-562 leukemia
[2] = test system: U251 CNS
[3] = test system: SK-MEL-2 melanoma
[4] = test system: UACC-62 melanoma
[5] = test system: HCT-116 colon
[6] = test system: EKVX NSCLC
[7] = test system: SF-539 CNS
[8] = test system: TK-10 renal
[9] = test system: SNB-19 CNS
[10] = test system: M14 melanoma

SMILES	TGI [1] [µM]	TGI [2] [µM]	TGI [3] [µM]	TGI [4] [µM]	TGI [5] [µM]	TGI [6] [µM]	TGI [7] [µM]	TGI [8] [µM]	TGI [9] [µM]	TGI [10]	GI50 [1]	GI50 [2] [µM]	GI50 [3] [µM]	GI50 [4]	GI50 [5] [µM]	GI50 [6]	GI50 [7] [µM]	GI50 [8] [µM]	GI50 [9]	GI50 [10]
CN(C)CC1CCC/C(=C\c2ccc(OC(=O)/C=C/c3ccc(Cl)c(Cl)c3)cc2)C1=O (stereo not given)	> 100	27.9	44.8	33.3	14.5	23.5	7.19	5.96	18.6	24.9 µM	–	–	–	–	–	–	–	–	–	–
CN(C)CCNC(=O)c1ccc(Cl)c2cc3ccccc3nc12	12.3	10.6	4.94	2.85	5.48	4.78	3.28	5.95	14.3	2.62 µM	–	–	–	–	–	–	–	–	–	–
Cc1cc(N2CCCC2)c([N+](=O)[O-])cc1[N+](=O)[O-]	> 100	> 100	> 100	> 100	> 100	> 100	> 100	–	> 100	> 100 µM	–	–	–	–	–	–	–	–	–	–
COCC12CCC(OC)C34C5CC6(O)C(OC)CC(OC(C)=O)(C5C6OC(=O)c5ccccc5)C(C(OC)C13)C4N(C)C2 (stereo not given)	–	> 100	> 100	> 100	> 100	> 100	> 100	> 100	> 100	> 100 µM	–	–	–	–	–	–	–	–	–	–
COc1cccc(-c2nccc3c(OCc4ccccc4)c(OC)c(OC)cc23)c1	> 100	> 100	> 100	> 100	> 100	> 100	> 100	> 100	> 100	> 100 µM	–	–	–	–	–	–	–	–	–	–
COc1ccc([C@]23CCN4COC[C@@H]([C@H]42)C2(CC3)OCC(C)(C)CO2)cc1OC	> 100	> 100	> 100	> 100	> 100	> 100	–	> 100	> 100	> 100 µM	–	–	–	–	–	–	–	–	–	–
COc1cc(CCN(C)C)cc(OC)c1OC	> 100	> 100	> 100	> 100	> 100	> 100	> 100	> 100	> 100	> 100 µM	–	–	–	–	–	–	–	–	–	–
O=C1/C(=C/c2ccccc2)NC(=S)N1CN1CCCCC1	> 100	> 100	> 100	> 100	> 100	> 100	–	–	> 100	> 100 µM	–	–	–	–	–	–	–	–	–	–
O=C(C(Cl)=C(N1CCCCC1)N1CCCCC1)C(Cl)Cl	> 100	–	–	> 100	> 100	> 100	> 100	> 100	> 100	> 100 µM	–	–	–	–	–	–	–	–	–	–
Cc1c2ccccc2c(C)n2c1nc1ccccc12	> 100	–	–	23.5	> 100	54.9	18.6	44.4	68.3	24.1 µM	–	–	–	–	–	–	–	–	–	–
C=Cc1nc(C#N)c(N)o1	> 100	> 100	> 100	–	> 100	> 100	> 100	> 100	> 100	> 100 µM	–	–	–	–	–	–	–	–	–	–
COc1cccc(C2SC(C)C(=O)N2CCc2cccs2)c1 (stereo not given)	> 100	11.2	11.5	10.7	8.36	10.7	13.6	11.7	13.7	–	2.81 µM	3.1	2.77	1.76 µM	1.89	1.49 µM	3.6	2.79	2.96 µM	–
COC([C@@H](OC(=O)c1ccccc1)[C@H](OC(=O)c1ccccc1)C(O)COC(=O)c1ccccc1)n1cc(C)c(=O)[nH]c1=O (stereo not given in full)	> 100	58.3	67.1	56.3	87.8	> 100	–	> 100	> 100	76 µM	–	–	–	–	–	–	–	–	–	–
COc1ccc2[nH]c(C(=O)N3CC(CCl)c4c3cc(N)c3ccccc43)cc2c1 (stereo not given)	> 100	0.0409	0.0285	< 0.0116	1.09	0.128	–	11.4	< 0.0386	–	–	–	–	–	–	–	–	–	–	–
CC(=O)OC(C)c1cc2c(s1)C(=O)c1c(C(C)OC(C)=O)csc1C2=O (stereo not given)	3.26	2.7	3.56	2.51	10.2	3.22	2.36	5.69	–	1.79 µM	–	–	1.56	1.09 µM	–	–	–	–	–	0.516 µM
c1csc(-c2ccsc2-c2ccsc2)c1	> 100	> 100	42.3	> 100	> 100	> 100	> 100	> 100	–	> 100 µM	–	–	–	–	–	–	–	–	–	–
COc1cc(OC2OC(COC(=O)c3cc(O)c(O)c(O)c3)C(O)C(O)C2O)ccc1O (stereo not given)	> 100	> 100	> 100	–	> 100	> 100	> 100	> 100	> 100	> 100 µM	–	–	–	–	–	–	–	–	–	–
CCCCn1c2ccccc2c2ccc3c(c21)C(=O)C=CC3=O	> 100	> 100	> 100	> 100	> 100	–	> 100	> 100	> 100	> 100 µM	–	–	–	–	–	–	–	–	–	–
CC(=O)OCCCCn1cc(Cn2ccc(=O)n(Cc3cn(CCCCOC(C)=O)nn3)c2=O)nn1	–	> 100	> 100	> 100	> 100	> 100	> 100	> 100	> 100	> 100 µM	–	–	–	–	–	–	–	–	–	–
O=C(CSc1nnc(-c2ccc(N=Cc3ccc(Cl)cc3)cc2)o1)Nc1ccc([N+](=O)[O-])cc1	97.1	37.1	60.8	42.4	9.43	> 100	–	> 100	33.7	42 µM	–	–	–	–	–	–	–	–	–	–
COC12CCC(C(C(=O)c3ccccc3)=C1C(=O)c1ccccc1)C(O)C2 (stereo not given)	> 100	–	> 100	> 100	> 100	> 100	> 100	> 100	> 100	> 100 µM	–	–	–	–	–	–	–	–	–	–
CC(=O)NC1(C(=O)N[C@@H](Cc2ccccc2)C(=O)NC2CCCCC2)Cc2ccc3ccccc3c2-c2c(ccc3ccccc23)C1	> 100	> 100	> 100	> 100	> 100	> 100	–	–	> 100	29.6 µM and 44 µM	2.7 µM and 7.67 µM	–	–	6.22 µM and 12.7 µM	–	4.45 µM and 18.4 µM	–	–	11 µM and 28.8 µM	3.32 µM and 7.79 µM

SMILES	TGI [1] [µM]	TGI [2] [µM]	TGI [3] [µM]	TGI [4] [µM]	TGI [5] [µM]	TGI [6] [µM]	TGI [7] [µM]	TGI [8] [µM]	TGI [9] [µM]	TGI [10]	GI50 [1]	GI50 [2] [µM]	GI50 [3] [µM]	GI50 [4]	GI50 [5] [µM]	GI50 [6]	GI50 [7] [µM]	GI50 [8] [µM]	GI50 [9]	GI50 [10]
Cc1cc(O)cc(O)c1C(=O)O[C@]1(C)C(=O)C=C2C=C(/C=C/C(=O)O)OC=C2C1=O	> 100	–	> 100	> 100	> 100	> 100	> 100	> 100	> 100	> 100 µM	–	–	–	–	–	–	–	–	–	–
O=C1C2=C(SCCS2)C(=O)c2c(Sc3ccc(Cl)cc3)c(Sc3ccc(Cl)cc3)c(Sc3ccc(Cl)cc3)c(Sc3ccc(Cl)cc3)c21	–	> 100	> 100	52.8	> 100	> 100	–	–	88.6	> 100 µM	–	–	–	–	–	–	–	–	–	–
CCOC(=O)c1[nH]c2cccc3c2c1CC[C@H](NC(=O)C(F)(F)F)C3=O	> 100	72.7	> 100	–	> 100	0.0531	> 100	> 100	46.3	> 100 µM	–	–	–	–	–	–	–	–	–	–
CN[C@@H](C)[C@@H](O)c1ccccc1	> 100	> 100	> 100	–	> 100	> 100	> 100	> 100	> 100	> 100 µM	–	–	–	–	–	–	–	–	–	–
O=C(O)CNC(=O)c1ccc2cc(C(=O)N3CC(CCl)c4ccc([N+](=O)[O-])cc43)[nH]c2c1 (stereo not given)	–	> 100	> 100	> 100	> 100	> 100	> 100	> 100	> 100	> 100 µM	–	–	–	–	–	–	–	–	–	–
Cn1ccnc1CCc1ccc(Cl)c(Cl)c1	> 100	> 100	> 100	> 100	> 100	–	> 100	> 100	–	> 100 µM	–	–	–	–	–	–	–	–	–	–
Nc1nc(=O)n(C2OC(CO)C(O)C2O)c2ncc(-c3ccc(-c4ccccc4)cc3)nc12 (stereo not given)	> 100	88.9	> 100	> 100	> 100	> 100	> 100	> 100	> 100	–	–	–	–	–	–	–	–	–	–	–
CN(Cc1cnc2nc(N)nc(N)c2n1)c1ccc(C(=O)NC(CCC(=O)NC(CC(P(=O)(O)O)P(=O)(O)O)C(=O)O)C(=O)O)cc1 (stereo not given)	–	> 100	> 100	> 100	> 100	> 100	–	> 100	> 100	> 100 µM	–	–	–	–	–	–	–	–	–	–
O=[N+]([O-])c1ccc(O)c(/C=N/c2nc(-c3ccccc3)cs2)c1	41.9	> 100	70.5	30.8	80.9	> 100	–	> 75.4	> 100	> 92.1 µM	–	–	–	–	–	–	–	–	–	–
O=[N+]([O-])c1ccc(N2N=C(c3ccc4ccccc4c3O)CC2c2ccc(Cl)cc2)c([N+](=O)[O-])c1 (stereo not given)	52	> 100	> 100	> 100	> 100	–	> 100	> 100	–	> 100 µM	–	–	–	–	–	–	–	–	–	–
Nc1ccc2ccc(-c3ccc[nH]3)nc2n1	–	> 100	> 100	–	> 100	> 100	> 100	> 100	> 100	> 100 µM	–	–	–	–	–	–	–	–	–	–
CC1=CCC[C@H]2[C@](C)(CC3=CC(=O)C(Sc4ccccc4)=CC3=O)[C@@H](C)CC[C@]12C	41.2	40.1	56.1	55.3	30.3	38.9	34.6	–	38.8	33.7 µM	19.5 µM	–	19.9	–	–	–	–	–	–	–
CC(C)(C)OC(=O)N1[C@@H]2Cc3ccc(N)cc3[C@@]1(C)c1ccccc12	62.6	32.4	43.4	53.6	37.1	> 100	–	> 100	> 100	51.8 µM	–	–	–	–	–	–	–	–	–	–
O=C(O)CCc1ccc2c(c1)CC1(Cc3ccccc3C1)C2	–	> 100	> 100	> 100	> 100	> 100	> 100	> 100	–	> 100 µM	–	–	–	–	–	–	–	–	–	–
NC(CC(O)(c1ccccc1)c1ccccc1)c1ccccc1S (stereo not given)	37.2	28.3	33.2	32	26.2	25.1	–	29.7	32.4	29 µM	–	–	–	–	–	–	–	–	–	–
COc1ccc(CNc2nc3cc(C(F)(F)F)ccc3nc2-c2ccccc2)cc1OC	> 100	–	> 100	> 100	> 100	> 100	> 100	> 100	> 100	> 100 µM	–	–	–	–	–	–	–	–	–	–
N[C@H](CCC(=O)NCP(=O)(O)O)C(=O)O	> 100	> 100	> 100	> 100	> 100	> 100	> 100	25.6	> 100	–	–	–	–	–	–	–	–	–	–	–
O=[N+]([O-])c1ccc([N+]2=NC(c3ccccc3)=NN(c3ccccc3)C2)cc1	> 100	> 100	92.4	> 100	> 100	–	> 100	> 100	> 100	> 100 µM	–	–	–	–	–	–	–	–	–	–
CN(C)c1ccc(/C=C/C(=O)O)cc1	> 100	–	> 100	> 100	> 100	> 100	> 100	–	> 100	> 100 µM	–	–	–	–	–	–	–	–	–	–
Cc1ccc(S(=O)(=O)N/N=C2/CCC(C(C)(C)C)CC2Br)cc1 (stereo not given)	40.1	21.1	28.1	–	51.5	> 100	50.4	> 100	> 100	35.4 µM	–	–	–	–	–	–	–	–	–	–
Clc1ccc(C2CC(c3cccc(Nc4ccncc4)c3)=NN2c2cc(Cl)cc(Cl)c2)cc1 (stereo not given)	6.12	–	–	3.29	–	3.12	3.2	3.7	–	3.9 µM	2.55 µM	–	–	1.77 µM	–	1.6 µM	1.69	1.93	–	1.81 µM

Reference: PubChem BioAssay (NCI)
